Source: US12433866B2, “Lasofoxifene treatment of aromatase-resistant ER+ cancer” (Sermonix Pharmaceuticals, Inc., priority 2021, dated 2025)

Key:
MCF7 LTLT primary tumors [1] = experiment: Ki67 proliferation index by immunohistochemistry on fixed mammary glands, MCF7 LTLT MIND model; format: in vivo, NSG mice; settings: for Ki67 percentage (mean +/− standard deviation): Let+ cohort (all groups also received letrozole 10 μg/day); for Effect on Ki67 percentage / proliferation index (in words): MCF7 LTLT model, comparisons as stated; for % Ki67 % mean: MCF7 LTLT primary tumors, IHC at sacrifice after 90-93 days of treatment, manual counting, Let− cohort, and Let+ cohort where label includes letrozole
Description: (§1) After cell injection, mice were separated into 2 equal groups; one group received 10 μg/day of letrozole in 15% PEG400 in PBS via subcutaneous injection, “LTLT-Let”; the other group wasn't administered letrozole (“LTLT”). Two to three weeks after cell injections, mice in each group were randomized and treated 5 days/week with lasofoxifene (10 mg/kg, in 100 μl of PBS containing 15% PEG400), palbociclib (70 mg/kg, Med Chem Express #HY-50567, in 50 mM sodium lactate buffer pH4), or vehicle. Lasofoxifene and vehicle were administered subcutaneously. Palbociclib was administered via oral gavage 5 times/week. Fulvestrant (Med Chem Express #HY-13636) (“IC”) (5 mg/mouse) was administered once per week via subcutaneous injection in 100 μl of mineral oil. Mice were also treated with combinations of lasofoxifene+palbociclib, fulvestrant+palbociclib, lasofoxifene+letrozole and palbociclib or fulvestrant+palbociclib, or letrozole.
Harvested tissues were fixed in formalin for IHC and H&E staining. Tissue histology was performed by the Human Tissue Resource Center (HRTC) at the University of Chicago. Primary Glands excised from the mice were sectioned and stained with antibodies to estrogen receptor alpha (ThermoScientific, RM-9101-S0, clone SP1), progesterone receptor (ThermoScientific, RM-9102-S0, clone SP2), glucocorticoid receptor (Cell Signaling, Cat #3660), androgen receptor (Abcam, ab133273, clone EPR1535), Ki67 (ThermoScientific, Cat #RM-9106-s, Clone: SP6) and human-specific mouse monoclonal antibody to mitochondria (Abcam, ab92824, clone 112-1).
(§2) H&E and IHC slides were scanned on a Nikon eclipse Ti2 microscope with a 10× objective for high resolution images. Ki67 score was determined using standardized manual counting.
Immunohistochemistry with anti-Ki67 antibody was performed on fixed mammary glands to determine the proliferation index for MCF7 LTLT primary tumors.

MCF7 LTLT primary tumors [2] = experiment: Percent tumor area vs total gland area by H&E of mammary gland sections, MCF7 LTLT MIND model; format: in vivo, NSG mice; settings: Let− cohort
Description: as §1
Harvested tissues were fixed in formalin for IHC and H&E staining. Tissue histology was performed by the Human Tissue Resource Center (HRTC) at the University of Chicago. […]
as §2
H&E slides were scanned on a Nikon microscope and analyzed with the NSI element software.

MCF7 LTLT primary tumors [3] = experiment: Mammary gland weight at sacrifice, MCF7 LTLT MIND model; format: in vivo, NSG mice; settings: Let− cohort
Description: Mouse studies were performed in compliance with an approved Institutional Animal Care and Use Committee protocol. NSG (NOD.Cg-Prkdcscid Il2rgtmlWjl/SzJ) mice were purchased from The Jackson Laboratories. Prior to injection, mice were anesthetized via inhalation with 2-3% isoflurane in oxygen. Injections of single-cell suspensions of 250,000 MCF7 cells in the mammary ducts of inguinal glands 4 and 9 were performed as described (Behbod, F., et al. Breast Cancer Res. 11, R66 (2009); Sflomos, G., et al. Cancer Cell 29, 407-422 (2016); Laine, M., et al. Breast Cancer Res. 23, 54 (2021)). Tumor growth in situ was followed via imaging in a Xenogen IVIS 200 instrument in the Integrated Small Animal Imaging Research Resource at the University of Chicago. For IVIS imaging, mice were injected with 100 μl of a 0.1 M luciferin solution in PBS (Perkin Elmer XenoLight #122799).
After cell injection, mice were separated into 2 equal groups; one group received 10 μg/day of letrozole in 15% PEG400 in PBS via subcutaneous injection, “LTLT-Let”; the other group wasn't administered letrozole (“LTLT”). Two to three weeks after cell injections, mice in each group were randomized and treated 5 days/week with lasofoxifene (10 mg/kg, in 100 μl of PBS containing 15% PEG400), palbociclib (70 mg/kg, Med Chem Express #HY-50567, in 50 mM sodium lactate buffer pH4), or vehicle. […]

MCF7 LTLT cells = experiment: Ex vivo IVIS radiance of excised liver, lung, brain and bone at sacrifice (metastasis), MCF7 LTLT MIND model; parameters: species or system NSG mice; settings: ex vivo radiance in bones at sacrifice
Description: as §1
After 90-93 days of treatment, mice were sacrificed, and mammary gland tumors were excised and weighed. Liver, bone brain and lungs were removed and imaged ex vivo in the IVIS 200, following an in vivo injection of luciferin 8 min prior to sacrifice, to measure luciferase activity.
At sacrifice, livers, lungs, bones and brains were excised and imaged ex vivo on the IVIS. […] Data for Let^+ group were evaluated but are not shown.

[4] = tested on: MCF7 LTLT (AI-resistant, ER+, cells lacking ESR1 gain-of-function mutations) tumors; experiment: MIND model: luciferase-GFP MCF7 LTLT cells in mammary ducts of NSG mice, live luminescence imaging of primary tumors (total photon flux); format: in vivo; settings: for Inhibition of primary tumor growth (conclusion in words): MCF7 LTLT tumors, AI-resistant, no ESR1 gain-of-function mutations
Description: Luciferase-GFP tagged LTLT cells were injected into the mammary ducts of NSG mice (MIND model) and tumor progression was monitored by live luminescence imaging of primary tumors, as well as ex vivo imaging and histochemical analysis of metastatic sites at study endpoint. Primary tumor area was also measured at study endpoint.
Cells were grown in RPMI containing 10% FBS and 1 μM letrozole.
Mouse studies were performed in compliance with an approved Institutional Animal Care and Use Committee protocol. NSG (NOD.Cg-Prkdcscid Il2rgtmlWjl/SzJ) mice were purchased from The Jackson Laboratories. Prior to injection, mice were anesthetized via inhalation with 2-3% isoflurane in oxygen. […] Tumor growth in situ was followed via imaging in a Xenogen IVIS 200 instrument in the Integrated Small Animal Imaging Research Resource at the University of Chicago.
Lasofoxifene and vehicle were administered subcutaneously. Palbociclib was administered via oral gavage 5 times/week. […] Mice were also treated with combinations of lasofoxifene+palbociclib, fulvestrant+palbociclib, lasofoxifene+letrozole and palbociclib or fulvestrant+palbociclib, or letrozole.
MCF7 LTLT cells labeled with GFP luciferase were injected into the mammary ducts of NSG mice to establish tumors that represent an AI resistant, non-ESR1-mutated, breast cancer model. Treatment with lasofoxifene, palbociclib and combinations of lasofoxifene and palbociclib were carried out in the presence (Let^+) or absence (Let^−) of letrozole, to account for the potential loss of letrozole resistance (“reversion”) in the Let^− cohort. Mice were imaged every other week in a Xenogen IVIS scanner to estimate tumor growth. At the end of the study, mammary glands were removed and weighed.

[5] = tested on: MCF-7 xenograft with activating ERα mutations; settings: gain-of-function activating mutations in the ERα receptor; previous studies; cited from earlier work
[6] = post-menopausal women with no history of breast cancer, wild estrogen receptors; cited from earlier work

| SMILES | Ki67 percentage (mean +/− standard deviation) (MCF7 LTLT primary tumors [1]) | Effect on Ki67 percentage / proliferation index (in words) (MCF7 LTLT primary tumors [1]; Let+ cohort) | % Ki67 % mean (MCF7 LTLT primary tumors [1]) [%] | % tumor area of total gland area, H&E (in words) (MCF7 LTLT primary tumors [2]) | Mammary gland weight at end of study (in words) (MCF7 LTLT primary tumors [3]) | Bone readings with a signal above threshold (MCF7 LTLT cells) [readings] | Tumor photon flux in the presence of letrozole (in words) ([4]; Let+ cohort, data not shown) | Total photon flux over time (in words) ([4]; imaged every other week, Let− cohorts shown) | Reduction of the Ki67 percentage (MCF7 LTLT primary tumors [1]; Let+ cohort, versus letrozole control) [%] | Bone metastasis / bone radiance versus vehicle (in words) (MCF7 LTLT cells) | Inhibition of tumor growth and metastasis compared with fulvestrant (in words) [5] | Inhibition of primary tumor growth (conclusion in words) [4] | Inhibition of primary tumor growth (conclusion in words) ([4]; listed as Lasofoxifene) | Photon flux at day 104 (in words) ([4]; day 104, regardless of the presence of letrozole) | Risk of ER+ breast cancer (in words) [6] |
| --- | --- | --- | --- | --- | --- | --- | --- | --- | --- | --- | --- | --- | --- | --- | --- |
| N#Cc1ccc(C(c2ccc(C#N)cc2)n2cncn2)cc1 [letrozole] | 39.5+/−7.7% | significantly lowers the Ki67 percentage | 39.5 |  |  |  |  |  |  |  |  |  |  |  |  |
| C[C@]12CC[C@@H]3c4ccc(O)cc4C[C@@H](CCCCCCCCC[S+]([O-])CCCC(F)(F)C(F)(F)F)[C@H]3[C@@H]1CC[C@@H]2O (stereo partly shown) [fulvestrant (ICI), fulvestrant] |  | do not reduce Ki67% levels | 56.8 | did not reach statistical significance | inhibits mammary gland weight | 2 | appeared to increase tumor photon flux | higher than all other treatments |  |  |  |  |  |  |  |
| CC(=O)c1c(C)c2cnc(Nc3ccc(N4CCNCC4)cn3)nc2n(C2CCCC2)c1=O [palbociclib] | 45.3+/−19.0% |  | 51.7 |  |  |  |  |  |  |  |  |  |  |  |  |
| Oc1ccc2c(c1)CC[C@H](c1ccccc1)[C@@H]2c1ccc(OCCN2CCCC2)cc1 [lasofoxifene] |  |  | 46.0 | significantly lower | inhibits increases in primary tumor weight |  |  |  | 6.5 | appears to inhibit metastasis to the bone | more effective than fulvestrant at inhibiting tumor growth and metastasis to the liver, lung, bone and brain | significantly inhibits primary tumor growth | significantly more effective than fulvestrant | significantly lower than vehicle and fulvestrant (ICI) treatment | reduce the risk of ER^+ breast cancer |
